Test results taken from patent US20250179073A1, “TRICYCLIC HETEROCYCLE COMPOUNDS AS IAP ANTAGONISTS” (Ascentage Pharma (Suzhou) Co., Ltd., priority 2022, published 2025).

Assays:
EVSA-T cells = test: Cell proliferation assay (CellTiter-Glo), EVSA-T; assay type: cell-based; conditions: Homo sapiens, EVSA-T, 72 h, 72 h treatment, Celltiter-Glo luminescence
How it was run: (§1)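 MDA-MB-231 (RPMI-1640/10% FBS) and EVSA-T (MEM/10% FBS) cells, 10000 cells/well, exposed 72 h to compound at […]. Viability read by CellTiter-Glo luminescence after 15 min at room temperature. IC50 from control-normalised curve fitting.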

MDA-MB-231 cells = test: Cell proliferation assay (CellTiter-Glo), MDA-MB-231; assay type: cell-based; conditions: Homo sapiens, MDA-MB-231, 72 h, 72 h treatment, Celltiter-Glo luminescence
How it was run: as §1

C[C@@H]1CN(CC(=O)N2CC(C)(C)c3c2cc(Cc2ccc(F)cc2)c2ncnn32)[C@@H](CN2CCN(C3COC3)C[C@H]2C)CN1 [Compound 203, 1-(4-(4-fluorobenzyl)-8,8-dimethyl-7,8-dihydro-6H-pyrrolo[2,3-e][1,2,4]triazolo[1,5-a]pyridin-6-yl)-2-((2R,5R)-5-methyl-2-(((R)-2-methyl-4-(oxetan-3-yl)piperazin-1-yl)methyl)piperazin-1-yl)ethan-1-one]
IC50 (EVSA-T cells): 3 nM | IC50 (MDA-MB-231 cells): 10 nM

C[C@@H]1CN(CC(=O)N2CC(C)(C)c3c2cc(Cc2ccc(F)cc2F)c2ncnn32)[C@@H](CN2CCOC[C@H]2C)CN1 [Compound 40, 1-(4-(2,4-difluorobenzyl)-8,8-dimethyl-7,8-dihydro-6H-pyrrolo[2,3-e][1,2,4]triazolo[1,5-a]pyridin-6-yl)-2-((2R,5R)-5-methyl-2-(((R)-3-methylmorpholino)methyl)piperazin-1-yl)ethan-1-one]
IC50 (EVSA-T cells): 3 nM | IC50 (MDA-MB-231 cells): 59 nM

C[C@@H]1CN(CC(=O)N2CC(C)(C)c3c2cc(Cc2ccc(F)cc2)c2nc(Cl)cn32)[C@@H](CN2CCOC[C@H]2C)CN1 [Compound 113, 1-(2-chloro-4-(4-fluorobenzyl)-8,8-dimethyl-7,8-dihydro-6H-imidazo[1,2-a]pyrrolo[2,3-e]pyridin-6-yl)-2-((2R,5R)-5-methyl-2-(((R)-3-methylmorpholino)methyl)piperazin-1-yl)ethan-1-one]
IC50 (EVSA-T cells): 6 nM | IC50 (MDA-MB-231 cells): 74 nM
